Measured values reported in patent publication US10011616B2, “Boron-containing small molecules as antiprotozoal1 agents” (MMV MEDICINES FOR MALARIA VENTURE, priority 2015, dated 2018).
Structures can show the parent of a compound that is named as a salt.

What was measured:
[1] = tested on: W2 strain of Plasmodium falciparum; assay: In vitro activity against W2 strain of Plasmodium falciparum (YOYO-1 flow cytometry); format: cell-based; conditions: Erythrocyte, 48 h, P. falciparum W2 in human erythrocytes, 2 d, growth inhibition, read-out: IC50: 1 Org. Growth P. falciparum W2, 2 d (LPS_00451)
Protocol: In Vitro Activity Against Plasmodium falciparum
b) Against W2 Strain of Plasmodium falciparum
W2 strain P. falciparum parasites were cultured in human erythrocytes and RPMI-1640 culture media with either 10% human serum or 0.5% Albumax serum substitute under 3% O2, 5% CO2, and 92% N2. Parasites synchronized to ring stage by treatments with 5% D-sorbitol were cultured with serial dilutions of benzoxaboroles from 5 to 10 mM stocks in 96 well microplate cultures including 200 μL of media/well, 2% hematocrit, and 1% parasitemia. At the completion of 48 h incubations, when untreated cultures contained new rings, parasites were fixed with 2% formaldehyde for 48 h, and 5 μL aliquots were transferred to another 96 well plate containing 150 μL/well of staining solution (100 mM NH4Cl, 0.1% Triton X-100, and 1 nM YOYO-1 in PBS). Parasites per erythrocyte were then determined by flow cytometry from plots of forward scatter against fluorescence (excitation 488 nm, emission 520 nm) using a FacSort flow cytometer (Beckton Dickinson) equipped with an AMS Loader (Cytek Development). All values were normalized to percent control activity, and IC50s were calculated using the Prism 3.0 program (GRAPHPAD Software). Goodness of fit was assessed by R^2 values, and meaningful dose-response curves yielded R^2 values >0.95.

[2] = tested on: 3D7 strain of Plasmodium falciparum; assay: In vitro activity against 3D7 strain of Plasmodium falciparum ([3H]-hypoxanthine incorporation assay); format: cell-based; conditions: Erythrocyte, 48 h, P. falciparum 3D7 in human erythrocytes, 2 d, growth inhibition, read-out: IC50: 1 Org. Growth P. falciparum 3D7, 2 d (LPS_00570)
Protocol: In Vitro Activity Against Plasmodium falciparum a) Against 3D7 Strain of Plasmodium falciparum Inhibition of 3D7 strain parasites was assessed using the [^3H]-hypoxanthine incorporation assay (Desjardins, et al. Antimicrob. Agents Chemother. 1979, 16, 710-718). Briefly, parasites were cultured in human erythrocytes (from the Spanish Red Cross blood bank) using RPMI-1640 culture media (Gibco) supplemented with 0.5% Albumax II (Invitrogen), 2% D-sucrose (Sigma-Aldrich), 0.3% glutamine (Sigma-Aldrich), and 5 mM hypoxanthine (Sigma-Aldrich). Cultures were maintained at 37° C. at an atmosphere of 5% O2, 5% CO2, and […]. To assess inhibition, asynchronous parasite cultures with 0.5% parasitemia and 2% hematocrit were exposed to 3-fold serial dilutions of test compounds for 24 hours in 96 well plate cultures (Costar #3894). After 24 hours, [^3H]-hypoxanthine was added, plates were incubated for an additional 24 hours, and parasites were harvested on glass fiber filters (Wallac #1450-421) using a cell harvester 96 (TOMTEC, Perkin Elmer). Filters were dried on scintillator sheets (MeltiLex A, PerkinElmer #1450-441) to determine incorporation of [^3H]-hypoxanthine. Radioactivity was measured using a microbeta counter (Perkin Elmer). Data are normalized using the incorporation of the positive control (infected erythrocytes without drug). IC50 values were determined using Excel and Grafit 5 software. Values were determined from at least three independent experiments, and standard deviations were calculated.

Structure (SMILES) | IC50 [1] | IC50 [2]
Cc1c(Oc2cnc(C(=O)N[C@@H](CO)CC(F)(F)F)cn2)ccc2c1B(O)OC2 [Example 33, (R)-5-(1-hydroxy-7-methyl-1,3-dihydrobenzo[c][1,2]oxaborol-6-yloxy)-N-(4,4,4-trifluoro-1-hydroxybutan-2-yl)pyrazine-2-carboxamide] | 0.0822 µM | 0.149 µM
Cc1c(Oc2cnc(C(=O)N3CC(O)(C4CC4)C3)cn2)ccc2c1B(O)OC2 [Example 55, (3-cyclopropyl-3-hydroxyazetidin-1-yl) (5-((1-hydroxy-7-methyl-1,3-dihydrobenzo[c][1,2]oxaborol-6-yl)oxy)pyrazin-2-yl)methanone] | 0.0517 µM | 0.234 µM
Cc1c(Oc2cnc(C(=O)NC(C)(C)CO)cn2)ccc2c1B(O)OC2 [Example 3, N-(1-hydroxy-2-methylpropan-2-yl)-5-(1-hydroxy-7-methyl-1,3-dihydrobenzo[c][1,2]oxaborol-6-yloxy)pyrazine-2-carboxamide] | 0.29 µM | 0.425 µM
Cc1c(Oc2cnc(C(=O)NC3(CO)CC3)cn2)ccc2c1B(O)OC2 [Example 17, 5-((1-hydroxy-7-methyl-1,3-dihydrobenzo[c][1,2]oxaborol-6-yl)oxy)-N-(1-(hydroxymethyl)cyclopropyl)pyrazine-2-carboxamide] | 2.01 µM | 1.5 µM
CCC[C@H](CO)N(C)C(=O)c1cnc(Oc2ccc3c(c2C)B(O)OC3)cn1 [Example 52, (R)-5-(1-hydroxy-7-methyl-1,3-dihydrobenzo[c][1,2]oxaborol-6-yloxy)-N-(1-hydroxypentan-2-yl)-N-methylpyrazine-2-carboxamide] | 0.0481 µM | 0.252 µM
Cc1c(Oc2cnc(C(=O)N[C@H]3CCC[C@@H]3O)cn2)ccc2c1B(O)OC2 [Example 46, 5-(1-hydroxy-7-methyl-1,3-dihydrobenzo[c][1,2]oxaborol-6-yloxy)-N-((1S,2S)-2-hydroxycyclopentyl)pyrazine-2-carboxamide] | 0.149 µM | 0.537 µM
Cc1c(Oc2cnc(C(=O)NCC(C)O)cn2)ccc2c1B(O)OC2 (centres unmarked) [Example 9, 5-(1-hydroxy-7-methyl-1,3-dihydrobenzo[c][1,2]oxaborol-6-yloxy)-N-(2-hydroxypropyl)pyrazine-2-carboxamide] | 1.28 µM | 1.1 µM
CCC[C@@H](CO)NC(=O)c1cnc(Oc2ccc3c(c2C)B(O)OC3)cn1 [Example 13, (S)-5-(1-hydroxy-7-methyl-1,3-dihydrobenzo[c][1,2]oxaborol-6-yloxy)-N-(1-hydroxypentan-2-yl)pyrazine-2-carboxamide] | 0.297 µM | 0.715 µM
CCCC1(O)CN(C(=O)c2cnc(Oc3ccc4c(c3C)B(O)OC4)cn2)C1 [Example 56, (3-hydroxy-3-propylazetidin-1-yl) (5-((1-hydroxy-7-methyl-1,3-dihydrobenzo[c][1,2]oxaborol-6-yl)oxy)pyrazin-2-yl)methanone] | 0.0159 µM | 0.137 µM
Cc1c(Oc2cnc(C(=O)N[C@@H]3CCC[C@@H]3O)cn2)ccc2c1B(O)OC2 (relative stereo) [Example 49, 5-((1-hydroxy-7-methyl-1,3-dihydrobenzo[c][1,2]oxaborol-6-yl)oxy)-N-(cis-2-hydroxycyclopentyl)pyrazine-2-carboxamide] | 0.292 µM | 0.181 µM
CCC1(O)CN(C(=O)c2cnc(Oc3ccc4c(c3C)B(O)OC4)cn2)C1 [Example 54, (3-ethyl-3-hydroxyazetidin-1-yl)(5-((1-hydroxy-7-methyl-1,3-dihydrobenzo[c][1,2]oxaborol-6-yl)oxy)pyrazin-2-yl)methanone] | 0.0289 µM | 0.087 µM
Cc1c(Oc2cnc(C(=O)NCCO)cn2)ccc2c1B(O)OC2 [Example 1, 5-((1-hydroxy-7-methyl-1,3-dihydrobenzo[c][1,2]oxaborol-6-yl)oxy)-N-(2-hydroxyethyl)pyrazine-2-carboxamide] | 0.372 µM | 1.08 µM
Cc1c(Oc2cnc(C(=O)N3CCNC[C@@H]3CO)cn2)ccc2c1B(O)OC2 [Example 51, (R)-(5-(1-hydroxy-7-methyl-1,3-dihydrobenzo[c][1,2]oxaborol-6-yloxy)pyrazin-2-yl) (2-(hydroxymethyl)piperazin-1-yl)methanone Hydrochloric Acid Salt] | 0.103 µM | 0.151 µM
Cc1c(Oc2cnc(C(=O)N[C@@H](CO)C(C)C)cn2)ccc2c1B(O)OC2 [Example 25, (R)—N-(1-hydroxy-3-methylbutan-2-yl)-5-(1-hydroxy-7-methyl-1,3-dihydrobenzo[c][1,2]oxaborol-6-yloxy)pyrazine-2-carboxamide] | 0.149 µM | 0.466 µM
Cc1c(Oc2cnc(C(=O)N[C@@H](CO)CS(C)(=O)=O)cn2)ccc2c1B(O)OC2 [Example 36, (S)—N-(1-hydroxy-3-(methylsulfonyl)propan-2-yl)-5-(1-hydroxy-7-methyl-1,3-dihydrobenzo[c][1,2]oxaborol-6-yloxy)pyrazine-2-carboxamide] | 0.201 µM | 0.472 µM
Cc1c(Oc2cnc(C(=O)N[C@H](CO)C3CC3)cn2)ccc2c1B(O)OC2 [Example 31, (S)—N-(1-cyclopropyl-2-hydroxyethyl)-5-(1-hydroxy-7-methyl-1,3-dihydrobenzo[c][1,2]oxaborol-6-yloxy)pyrazine-2-carboxamide] | 0.643 µM | 1.09 µM
Cc1c(Oc2cnc(C(=O)NC(C)C(C)O)cn2)ccc2c1B(O)OC2 (centres unmarked) [Example 39, 5-(1-hydroxy-7-methyl-1,3-dihydrobenzo[c][1,2]oxaborol-6-yloxy)-N-(3-hydroxybutan-2-yl)pyrazine-2-carboxamide] | 0.513 µM | 1.46 µM
C=C[C@H](CO)NC(=O)c1cnc(Oc2ccc3c(c2C)B(O)OC3)cn1 [Example 30, (R)-5-(1-hydroxy-7-methyl-1,3-dihydrobenzo[c][1,2]oxaborol-6-yloxy)-N-(1-hydroxybut-3-en-2-yl)pyrazine-2-carboxamide] | 0.317 µM | 0.536 µM
C=CC(CO)NC(=O)c1cnc(Oc2ccc3c(c2C)B(O)OC3)cn1 (centres unmarked) [Example 20, 5-(1-hydroxy-7-methyl-1,3-dihydrobenzo[c][1,2]oxaborol-6-yloxy)-N-(1-hydroxybut-3-en-2-yl)pyrazine-2-carboxamide] | 0.535 µM | 0.786 µM
Cc1c(Oc2cnc(C(=O)NCC(C)(C)O)cn2)ccc2c1B(O)OC2 [Example 4, N-(2-hydroxy-2-methylpropyl)-5-(1-hydroxy-7-methyl-1,3-dihydrobenzo[c][1,2]oxaborol-6-yloxy)pyrazine-2-carboxamide] | 0.334 µM | 0.554 µM
COCCNC(=O)c1cnc(Oc2ccc3c(c2C)B(O)OC3)cn1 [Example 2, 5-(1-hydroxy-7-methyl-1,3-dihydrobenzo[c][1,2]oxaborol-6-yloxy)-N-(2-methoxyethyl)pyrazine-2-carboxamide] | 0.788 µM | 0.644 µM
CC[C@H](CO)NC(=O)c1cnc(Oc2ccc3c(c2C)B(O)OC3)cn1 [Example 19, (R)-5-(1-hydroxy-7-methyl-1,3-dihydrobenzo[c][1,2]oxaborol-6-yloxy)-N-(1-hydroxybutan-2-yl)pyrazine-2-carboxamide] | 0.136 µM | 0.403 µM
Cc1c(Oc2cnc(C(=O)N[C@H](C)C(C)(C)O)cn2)ccc2c1B(O)OC2 [Example 48, (R)—N-(3-hydroxy-3-methylbutan-2-yl)-5-(1-hydroxy-7-methyl-1,3-dihydrobenzo[c][1,2]oxaborol-6-yloxy)pyrazine-2-carboxamide] | 0.265 µM | 0.374 µM
CCC[C@H](CO)NC(=O)c1cnc(Oc2ccc3c(c2C)B(O)OC3)cn1 [Example 14, (R)-5-(1-hydroxy-7-methyl-1,3-dihydrobenzo[c][1,2]oxaborol-6-yloxy)-N-(1-hydroxypentan-2-yl)pyrazine-2-carboxamide] | 0.161 µM | 0.201 µM
Cc1c(Oc2cnc(C(=O)N3CC(C)(O)C3)cn2)ccc2c1B(O)OC2 [Example 41, (3-hydroxy-3-methylazetidin-1-yl) (5-((1-hydroxy-7-methyl-1,3-dihydrobenzo[c][1,2]oxaborol-6-yl)oxy)pyrazin-2-yl)methanone] | 0.0326 µM | 0.0706 µM
